Active and inactive are the calls of the source. How the calls were made is not given here.

This series deals with CCRIS mutagenicity, Ames/micronucleus/aberration tests. Nature of the series: CCRIS mutagenicity studies. The following applies: Test System: AMES SALMONELLA TYPHIMURIUM
The mark [1] stands for this setting: Strain/Indicator: TA98, Metabolic Activation: NONE, Method: PREINCUBATION
Where [2] appears, read: Strain/Indicator: TA100, Metabolic Activation: NONE, Method: PREINCUBATION
The mark [3] stands for this setting: Strain/Indicator: TA98, Metabolic Activation: NONE, Method: STANDARD PLATE.
[4] abbreviates: Strain/Indicator: TA100, Metabolic Activation: NONE, Method: STANDARD PLATE.
Setting [5] is: Strain/Indicator: TA98, Metabolic Activation: RAT, LIVER, S-9, PCB, Method: STANDARD PLATE.
Setting [6] is: Strain/Indicator: TA100, Metabolic Activation: RAT, LIVER, S-9, PCB, Method: STANDARD PLATE.

As to `CN(C)CCN(Cc1ccccc1)c1ccccc1`, the mutagenic call (Strain/Indicator: TA98, Metabolic Activation: HAMSTER, LIVER, S-9, AROCLOR 1254 (10%), Method: PREINCUBATION) was “inactive; negative”; the mutagenic call under setting [1] was “inactive; negative”; the mutagenic call (Strain/Indicator: TA98, Metabolic Activation: RAT, LIVER, S-9, AROCLOR 1254 (10%), Method: PREINCUBATION) was “inactive; negative”; the mutagenic call (Strain/Indicator: TA100, Metabolic Activation: HAMSTER, LIVER, S-9, AROCLOR 1254 (10%), Method: PREINCUBATION) was “inactive; negative”; the mutagenic call under setting [2] is “inactive; negative”; the mutagenic call (Strain/Indicator: TA100, Metabolic Activation: RAT, LIVER, S-9, AROCLOR 1254 (10%), Method: PREINCUBATION) was “inactive; negative”. For the same compound, the mutagenic call by setting is: (Strain/Indicator: TA1535, Metabolic Activation: HAMSTER, LIVER, S-9, AROCLOR 1254 (10%), Method: PREINCUBATION) “inactive; negative”; (Strain/Indicator: TA1535, Metabolic Activation: NONE, Method: PREINCUBATION) “inactive; negative”; (Strain/Indicator: TA1535, Metabolic Activation: RAT, LIVER, S-9, AROCLOR 1254 (10%), Method: PREINCUBATION) “inactive; negative”; (Strain/Indicator: TA1537, Metabolic Activation: HAMSTER, LIVER, S-9, AROCLOR 1254 (10%), Method: PREINCUBATION) “inactive; negative”; (Strain/Indicator: TA1537, Metabolic Activation: NONE, Method: PREINCUBATION) “inactive; negative”; (Strain/Indicator: TA1537, Metabolic Activation: RAT, LIVER, S-9, AROCLOR 1254 (10%), Method: PREINCUBATION) “inactive; negative”.

For `[N-]=[N+]=NC[C@H]1O[C@H](O)[C@H](O)[C@@H](O)[C@H]1O`, the mutagenic call was “inactive; negative” under setting [3] and “active; positive” under setting [4].

Turning to `COC(=O)c1cc(Cc2ccc(N)c(C(=O)OC)c2)ccc1N`, the mutagenic call under setting [1] was “inactive; negative”; the mutagenic call (Strain/Indicator: TA98, Metabolic Activation: RAT, LIVER, S-9, PCB, Method: PREINCUBATION) was “active; positive”; the mutagenic call under setting [2] was “inactive; negative”; the mutagenic call (Strain/Indicator: TA100, Metabolic Activation: RAT, LIVER, S-9, PCB, Method: PREINCUBATION) was “active; positive”.

As to `CC(=O)Nc1ccc(Oc2ccc(N(O)C(C)=O)cc2)cc1`, the mutagenic call by setting is: (Strain/Indicator: TA98(1,8-DNP6), Metabolic Activation: NONE, Method: PREINCUBATION) “active; positive”; (Strain/Indicator: TA98(1,8-DNP6), Metabolic Activation: RAT, LIVER, S-9, AROCLOR 1254, Method: PREINCUBATION) “active; positive”; (Strain/Indicator: TA98(NR), Metabolic Activation: NONE, Method: PREINCUBATION) “active; positive”; (Strain/Indicator: TA98(NR), Metabolic Activation: RAT, LIVER, S-9, AROCLOR 1254, Method: PREINCUBATION) “active; positive”; under setting [1], “active; positive”; (Strain/Indicator: TA98, Metabolic Activation: RAT, LIVER, S-9, AROCLOR 1254, Method: PREINCUBATION) “active; positive”. In addition, the mutagenic call is “active; positive” (Strain/Indicator: TA100(NR), Metabolic Activation: NONE, Method: PREINCUBATION); “active; positive” (Strain/Indicator: TA100(NR), Metabolic Activation: RAT, LIVER, S-9, AROCLOR 1254, Method: PREINCUBATION); “active; positive” under setting [2]; “active; positive” (Strain/Indicator: TA100, Metabolic Activation: RAT, LIVER, S-9, AROCLOR 1254, Method: PREINCUBATION).

Regarding `CC/C=C\CC/C=C/C=O`, the mutagenic call is “inactive; negative” under setting [2]; “inactive; negative” (Strain/Indicator: TA100, Metabolic Activation: NONE, Method: PREINCUBATION (THREEFOLD CELL DENSITY)); “inactive; negative” (Strain/Indicator: TA100, Metabolic Activation: RAT, LIVER, S-9, AROCLOR 1254, Method: PREINCUBATION (THREEFOLD CELL DENSITY)).

Turning to `O=C1C=Cc2ccc3c4c(ccc1c24)C(=O)C=C3`, the mutagenic call by setting is: (Strain/Indicator: TA97, Metabolic Activation: NONE, Method: STANDARD PLATE) “active; positive”; (Strain/Indicator: TA97, Metabolic Activation: RAT, LIVER, S-9, PCB, Method: STANDARD PLATE) “active; positive”; under setting [3], “inactive; negative”; under setting [5], “inactive; negative”; under setting [4], “inactive; negative”; under setting [6], “inactive; negative”.

As to `CC(C)(C)NCC(O)c1cc(Cl)c(N)c(C(F)(F)F)c1` (configuration not stated), the mutagenic call reads like this: under setting [3], “inactive; negative”; under setting [5], “inactive; negative”; under setting [4], “inactive; negative”; under setting [6], “inactive; negative”; (Strain/Indicator: TA1535, Metabolic Activation: NONE, Method: STANDARD PLATE) “inactive; negative”; (Strain/Indicator: TA1535, Metabolic Activation: RAT, LIVER, S-9, PCB, Method: STANDARD PLATE) “inactive; negative”. Moreover, the mutagenic call was “inactive; negative” (Strain/Indicator: TA1537, Metabolic Activation: NONE, Method: STANDARD PLATE); “inactive; negative” (Strain/Indicator: TA1537, Metabolic Activation: RAT, LIVER, S-9, PCB, Method: STANDARD PLATE); “inactive; negative” (Strain/Indicator: TA1538, Metabolic Activation: NONE, Method: STANDARD PLATE); “inactive; negative” (Strain/Indicator: TA1538, Metabolic Activation: RAT, LIVER, S-9, PCB, Method: STANDARD PLATE).

The record behind these values is PubChem BioAssay AID1259407 (Chemical Carcinogenesis Research Information System (CCRIS), 2018).
